Source: patent publication US6518243B1, “Desleucyl glycopeptide antibiotics and methods of making same” (Trustees of Princeton University, priority 1999, dated 2003)

Tests used:
E. faecalis (CL 4877) = assay: Zone of inhibition screen, 96 well agar array format; assay type: cell-based; parameters: scale not given here
Summary of the method: (§1)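 Read-out is antibacterial activity on agar laid out as a 96-well array; every compound went through all strains of the panel.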

S. aureus (ATCC 29213) = assay: as above; assay type: cell-based; parameters: scale not given here
Summary of the method: as §1

[1] = zone of inhibition relative to 1 mg/ml p-chlorobiphenylvancomycin
[2] = zone of inhibition relative to 1 mg/ml stock solution of p-chlorobiphenylvancomycin

COC(=O)C=CC(=O)NC1C(=O)NC(CC(N)=O)C(=O)NC2C(=O)NC3C(=O)NC(C(=O)NC(C(=O)O)c4cc(O)cc(O)c4-c4cc3ccc4O)C(O)c3ccc(c(Cl)c3)Oc3cc2cc(c3OC2OC(CO)C(O)C(O)C2OC2CC(C)(NCc3ccc(-c4ccc(Cl)cc4)cc3)C(O)C(C)O2)Oc2ccc(cc2Cl)C1O (centres unmarked) [Compound 297]
zone score, E. faecalis CL 4877 (E. faecalis (CL 4877); [1]): 2 | zone score, S. aureus ATCC 29213 (S. aureus (ATCC 29213); [1]): 2

C=C(C(=O)NC1C(=O)NC(CC(N)=O)C(=O)NC2C(=O)NC3C(=O)NC(C(=O)NC(C(=O)O)c4cc(O)cc(O)c4-c4cc3ccc4O)C(O)c3ccc(c(Cl)c3)Oc3cc2cc(c3OC2OC(CO)C(O)C(O)C2OC2CC(C)(NCc3ccc(-c4ccc(Cl)cc4)cc3)C(O)C(C)O2)Oc2ccc(cc2Cl)C1O)C(F)(F)F (centres unmarked) [Compound 231]
zone score, E. faecalis CL 4877 (E. faecalis (CL 4877); [1]): 2 | zone score, S. aureus ATCC 29213 (S. aureus (ATCC 29213); [1]): 2

CC1OC(OC2C(Oc3c4cc5cc3Oc3ccc(cc3Cl)C(O)C(NC(=O)C(C)(CO)CO)C(=O)NC(CC(N)=O)C(=O)NC5C(=O)NC3C(=O)NC(C(=O)NC(C(=O)O)c5cc(O)cc(O)c5-c5cc3ccc5O)C(O)c3ccc(c(Cl)c3)O4)OC(CO)C(O)C2O)CC(C)(NCc2ccc(-c3ccc(Cl)cc3)cc2)C1O (centres unmarked) [Compound 232]
zone score, E. faecalis CL 4877 (E. faecalis (CL 4877); [1]): 2 | zone score, S. aureus ATCC 29213 (S. aureus (ATCC 29213); [1]): 2

CC(=O)Nc1ccc(C(=O)NC2C(=O)NC(CC(N)=O)C(=O)NC3C(=O)NC4C(=O)NC(C(=O)NC(C(=O)O)c5cc(O)cc(O)c5-c5cc4ccc5O)C(O)c4ccc(c(Cl)c4)Oc4cc3cc(c4OC3OC(CO)C(O)C(O)C3OC3CC(C)(NCc4ccc(-c5ccc(Cl)cc5)cc4)C(O)C(C)O3)Oc3ccc(cc3Cl)C2O)cc1 (centres unmarked) [Compound 265]
zone score, E. faecalis CL 4877 (E. faecalis (CL 4877); [1]): 2 | zone score, S. aureus ATCC 29213 (S. aureus (ATCC 29213); [1]): 2

C[C@H]1O[C@H](O[C@H]2[C@H](Oc3c4cc5cc3Oc3ccc(cc3Cl)[C@@H](O)[C@@H](NC(=O)C(N)CC3CCCCC3)C(=O)N[C@@H](CC(N)=O)C(=O)N[C@H]5C(=O)N[C@H]3C(=O)N[C@H](C(=O)N[C@@H](C(=O)O)c5cc(O)cc(O)c5-c5cc3ccc5O)[C@H](O)c3ccc(c(Cl)c3)O4)O[C@H](CO)[C@@H](O)[C@@H]2O)C[C@@](C)(NCc2ccc(-c3ccc(Cl)cc3)cc2)[C@H]1O (some centres unmarked) [Compound 4]
zone score, E. faecalis CL 4877 (E. faecalis (CL 4877); [2]): 2 | zone score, S. aureus ATCC 29213 (S. aureus (ATCC 29213); [2]): 2

CC(NCCCCC(N)C(=O)NC1C(=O)NC(CC(N)=O)C(=O)NC2C(=O)NC3C(=O)NC(C(=O)NC(C(=O)O)c4cc(O)cc(O)c4-c4cc3ccc4O)C(O)c3ccc(c(Cl)c3)Oc3cc2cc(c3OC2OC(CO)C(O)C(O)C2OC2CC(C)(NCc3ccc(-c4ccc(Cl)cc4)cc3)C(O)C(C)O2)Oc2ccc(cc2Cl)C1O)=C1C(=O)CC(C)(C)CC1=O (centres unmarked) [Compound 39]
zone score, E. faecalis CL 4877 (E. faecalis (CL 4877); [2]): 2 | zone score, S. aureus ATCC 29213 (S. aureus (ATCC 29213); [2]): 2

CC(=O)CCCCC(=O)NC1C(=O)NC(CC(N)=O)C(=O)NC2C(=O)NC3C(=O)NC(C(=O)NC(C(=O)O)c4cc(O)cc(O)c4-c4cc3ccc4O)C(O)c3ccc(c(Cl)c3)Oc3cc2cc(c3OC2OC(CO)C(O)C(O)C2OC2CC(C)(NCc3ccc(-c4ccc(Cl)cc4)cc3)C(O)C(C)O2)Oc2ccc(cc2Cl)C1O (centres unmarked) [Compound 278]
zone score, E. faecalis CL 4877 (E. faecalis (CL 4877); [1]): 2 | zone score, S. aureus ATCC 29213 (S. aureus (ATCC 29213); [1]): 2

CC1OC(OC2C(Oc3c4cc5cc3Oc3ccc(cc3Cl)C(O)C3NC(=O)C(NC(=O)C5NC(=O)C(CC(N)=O)NC(=O)C(NC(=O)c5cc(O)cc(O)c5)C(O)c5ccc(c(Cl)c5)O4)c4ccc(O)c(c4)-c4c(O)cc(O)cc4C(C(=O)O)NC3=O)OC(CO)C(O)C2O)CC(C)(NCc2ccc(-c3ccc(Cl)cc3)cc2)C1O (centres unmarked) [Compound 255]
zone score, E. faecalis CL 4877 (E. faecalis (CL 4877); [1]): 2 | zone score, S. aureus ATCC 29213 (S. aureus (ATCC 29213); [1]): 2

COc1ccc(C(=O)NC2C(=O)NC(CC(N)=O)C(=O)NC3C(=O)NC4C(=O)NC(C(=O)NC(C(=O)O)c5cc(O)cc(O)c5-c5cc4ccc5O)C(O)c4ccc(c(Cl)c4)Oc4cc3cc(c4OC3OC(CO)C(O)C(O)C3OC3CC(C)(NCc4ccc(-c5ccc(Cl)cc5)cc4)C(O)C(C)O3)Oc3ccc(cc3Cl)C2O)c(OC)c1 (centres unmarked) [Compound 236]
zone score, E. faecalis CL 4877 (E. faecalis (CL 4877); [1]): 2 | zone score, S. aureus ATCC 29213 (S. aureus (ATCC 29213); [1]): 2

CC1OC(OC2C(Oc3c4cc5cc3Oc3ccc(cc3Cl)C(O)C3NC(=O)C(NC(=O)C5NC(=O)C(CC(N)=O)NC(=O)C(NC(=O)C5=CC(O)C(O)C(O)C5)C(O)c5ccc(c(Cl)c5)O4)c4ccc(O)c(c4)-c4c(O)cc(O)cc4C(C(=O)O)NC3=O)OC(CO)C(O)C2O)CC(C)(NCc2ccc(-c3ccc(Cl)cc3)cc2)C1O (centres unmarked) [Compound 201]
zone score, E. faecalis CL 4877 (E. faecalis (CL 4877); [2]): 2 | zone score, S. aureus ATCC 29213 (S. aureus (ATCC 29213); [2]): 2

CC1OC(OC2C(Oc3c4cc5cc3Oc3ccc(cc3Cl)C(O)C3NC(=O)C(NC(=O)C5NC(=O)C(CC(N)=O)NC(=O)C(NC(=O)c5c[nH]c(=O)[nH]c5=O)C(O)c5ccc(c(Cl)c5)O4)c4ccc(O)c(c4)-c4c(O)cc(O)cc4C(C(=O)O)NC3=O)OC(CO)C(O)C2O)CC(C)(NCc2ccc(-c3ccc(Cl)cc3)cc2)C1O (centres unmarked) [Compound 208]
zone score, E. faecalis CL 4877 (E. faecalis (CL 4877); [1]): 2 | zone score, S. aureus ATCC 29213 (S. aureus (ATCC 29213); [1]): 2

CC(=O)NCCCC(=O)NC1C(=O)NC(CC(N)=O)C(=O)NC2C(=O)NC3C(=O)NC(C(=O)NC(C(=O)O)c4cc(O)cc(O)c4-c4cc3ccc4O)C(O)c3ccc(c(Cl)c3)Oc3cc2cc(c3OC2OC(CO)C(O)C(O)C2OC2CC(C)(NCc3ccc(-c4ccc(Cl)cc4)cc3)C(O)C(C)O2)Oc2ccc(cc2Cl)C1O (centres unmarked) [Compound 107]
zone score, E. faecalis CL 4877 (E. faecalis (CL 4877); [2]): 2 | zone score, S. aureus ATCC 29213 (S. aureus (ATCC 29213); [2]): 2

Cc1cnc(C(=O)NC2C(=O)NC(CC(N)=O)C(=O)NC3C(=O)NC4C(=O)NC(C(=O)NC(C(=O)O)c5cc(O)cc(O)c5-c5cc4ccc5O)C(O)c4ccc(c(Cl)c4)Oc4cc3cc(c4OC3OC(CO)C(O)C(O)C3OC3CC(C)(NCc4ccc(-c5ccc(Cl)cc5)cc4)C(O)C(C)O3)Oc3ccc(cc3Cl)C2O)cn1 (centres unmarked) [Compound 243]
zone score, E. faecalis CL 4877 (E. faecalis (CL 4877); [1]): 2 | zone score, S. aureus ATCC 29213 (S. aureus (ATCC 29213); [1]): 2

CSCCC(NC(C)=O)C(=O)NC1C(=O)NC(CC(N)=O)C(=O)NC2C(=O)NC3C(=O)NC(C(=O)NC(C(=O)O)c4cc(O)cc(O)c4-c4cc3ccc4O)C(O)c3ccc(c(Cl)c3)Oc3cc2cc(c3OC2OC(CO)C(O)C(O)C2OC2CC(C)(NCc3ccc(-c4ccc(Cl)cc4)cc3)C(O)C(C)O2)Oc2ccc(cc2Cl)C1O (centres unmarked) [Compound 115]
zone score, E. faecalis CL 4877 (E. faecalis (CL 4877); [2]): 2 | zone score, S. aureus ATCC 29213 (S. aureus (ATCC 29213); [2]): 2

CC1OC(OC2C(Oc3c4cc5cc3Oc3ccc(cc3Cl)C(O)C3NC(=O)C(NC(=O)C5NC(=O)C(CC(N)=O)NC(=O)C(NC(=O)CON)C(O)c5ccc(c(Cl)c5)O4)c4ccc(O)c(c4)-c4c(O)cc(O)cc4C(C(=O)O)NC3=O)OC(CO)C(O)C2O)CC(C)(NCc2ccc(-c3ccc(Cl)cc3)cc2)C1O (centres unmarked) [Compound 222]
zone score, E. faecalis CL 4877 (E. faecalis (CL 4877); [1]): 2 | zone score, S. aureus ATCC 29213 (S. aureus (ATCC 29213); [1]): 2

CC1OC(OC2C(Oc3c4cc5cc3Oc3ccc(cc3Cl)C(O)C3NC(=O)C(NC(=O)C5NC(=O)C(CC(N)=O)NC(=O)C(NC(=O)c5ccc(=O)oc5)C(O)c5ccc(c(Cl)c5)O4)c4ccc(O)c(c4)-c4c(O)cc(O)cc4C(C(=O)O)NC3=O)OC(CO)C(O)C2O)CC(C)(NCc2ccc(-c3ccc(Cl)cc3)cc2)C1O (centres unmarked) [Compound 282]
zone score, E. faecalis CL 4877 (E. faecalis (CL 4877); [1]): 2 | zone score, S. aureus ATCC 29213 (S. aureus (ATCC 29213); [1]): 2

CC1OC(OC2C(Oc3c4cc5cc3Oc3ccc(cc3Cl)C(O)C3NC(=O)C(NC(=O)C5NC(=O)C(CC(N)=O)NC(=O)C(NC(=O)C(N)CCCNC(=N)N)C(O)c5ccc(c(Cl)c5)O4)c4ccc(O)c(c4)-c4c(O)cc(O)cc4C(C(=O)O)NC3=O)OC(CO)C(O)C2O)CC(C)(NCc2ccc(-c3ccc(Cl)cc3)cc2)C1O (centres unmarked) [Compound 90]
zone score, E. faecalis CL 4877 (E. faecalis (CL 4877); [2]): 2 | zone score, S. aureus ATCC 29213 (S. aureus (ATCC 29213); [2]): 2

CC1OC(OC2C(Oc3c4cc5cc3Oc3ccc(cc3Cl)C(O)C3NC(=O)C(NC(=O)C5NC(=O)C(CC(N)=O)NC(=O)C(NC(=O)CNC(=O)c5cccnc5)C(O)c5ccc(c(Cl)c5)O4)c4ccc(O)c(c4)-c4c(O)cc(O)cc4C(C(=O)O)NC3=O)OC(CO)C(O)C2O)CC(C)(NCc2ccc(-c3ccc(Cl)cc3)cc2)C1O (centres unmarked) [Compound 197]
zone score, E. faecalis CL 4877 (E. faecalis (CL 4877); [2]): 2 | zone score, S. aureus ATCC 29213 (S. aureus (ATCC 29213); [2]): 2

CC1OC(OC2C(Oc3c4cc5cc3Oc3ccc(cc3Cl)C(O)C3NC(=O)C(NC(=O)C5NC(=O)C(CC(N)=O)NC(=O)C(NC(=O)c5cccc(SC(F)(F)F)c5)C(O)c5ccc(c(Cl)c5)O4)c4ccc(O)c(c4)-c4c(O)cc(O)cc4C(C(=O)O)NC3=O)OC(CO)C(O)C2O)CC(C)(NCc2ccc(-c3ccc(Cl)cc3)cc2)C1O (centres unmarked) [Compound 248]
zone score, E. faecalis CL 4877 (E. faecalis (CL 4877); [1]): 2 | zone score, S. aureus ATCC 29213 (S. aureus (ATCC 29213); [1]): 2

C#CCC(NC(C)=O)C(=O)NC1C(=O)NC(CC(N)=O)C(=O)NC2C(=O)NC3C(=O)NC(C(=O)NC(C(=O)O)c4cc(O)cc(O)c4-c4cc3ccc4O)C(O)c3ccc(c(Cl)c3)Oc3cc2cc(c3OC2OC(CO)C(O)C(O)C2OC2CC(C)(NCc3ccc(-c4ccc(Cl)cc4)cc3)C(O)C(C)O2)Oc2ccc(cc2Cl)C1O (mixture of isomers) [Compound 177]
zone score, E. faecalis CL 4877 (E. faecalis (CL 4877); [2]): 2 | zone score, S. aureus ATCC 29213 (S. aureus (ATCC 29213); [2]): 2

CC1OC(OC2C(Oc3c4cc5cc3Oc3ccc(cc3Cl)C(O)C3NC(=O)C(NC(=O)C5NC(=O)C(CC(N)=O)NC(=O)C(NC(=O)C(CCC(N)=O)NC(=O)OC(C)(C)C)C(O)c5ccc(c(Cl)c5)O4)c4ccc(O)c(c4)-c4c(O)cc(O)cc4C(C(=O)O)NC3=O)OC(CO)C(O)C2O)CC(C)(NCc2ccc(-c3ccc(Cl)cc3)cc2)C1O (centres unmarked) [Compound 141]
zone score, E. faecalis CL 4877 (E. faecalis (CL 4877); [2]): 2 | zone score, S. aureus ATCC 29213 (S. aureus (ATCC 29213); [2]): 2

CC1OC(OC2C(Oc3c4cc5cc3Oc3ccc(cc3Cl)C(O)C3NC(=O)C(NC(=O)C5NC(=O)C(CC(N)=O)NC(=O)C(NC(=O)CCNC(N)=O)C(O)c5ccc(c(Cl)c5)O4)c4ccc(O)c(c4)-c4c(O)cc(O)cc4C(C(=O)O)NC3=O)OC(CO)C(O)C2O)CC(C)(NCc2ccc(-c3ccc(Cl)cc3)cc2)C1O (centres unmarked) [Compound 221]
zone score, E. faecalis CL 4877 (E. faecalis (CL 4877); [1]): 2 | zone score, S. aureus ATCC 29213 (S. aureus (ATCC 29213); [1]): 2
